The source of these data is paper PMC4300089, “Structure-Guided Design of Selective Epac1 and Epac2 Agonists” (PLoS Biology, 2015).

What is called AC50 is the midpoint of the concentration-response curve, whichever way the signal moves.

Where two headings read alike, the source gives them in different places.

Assay [1] deals with T1, Epac1 (Homo sapiens, UniProt O95398).
T1 construct: made in house
T1 sequence (O95398 150-881 isoform O95398-3): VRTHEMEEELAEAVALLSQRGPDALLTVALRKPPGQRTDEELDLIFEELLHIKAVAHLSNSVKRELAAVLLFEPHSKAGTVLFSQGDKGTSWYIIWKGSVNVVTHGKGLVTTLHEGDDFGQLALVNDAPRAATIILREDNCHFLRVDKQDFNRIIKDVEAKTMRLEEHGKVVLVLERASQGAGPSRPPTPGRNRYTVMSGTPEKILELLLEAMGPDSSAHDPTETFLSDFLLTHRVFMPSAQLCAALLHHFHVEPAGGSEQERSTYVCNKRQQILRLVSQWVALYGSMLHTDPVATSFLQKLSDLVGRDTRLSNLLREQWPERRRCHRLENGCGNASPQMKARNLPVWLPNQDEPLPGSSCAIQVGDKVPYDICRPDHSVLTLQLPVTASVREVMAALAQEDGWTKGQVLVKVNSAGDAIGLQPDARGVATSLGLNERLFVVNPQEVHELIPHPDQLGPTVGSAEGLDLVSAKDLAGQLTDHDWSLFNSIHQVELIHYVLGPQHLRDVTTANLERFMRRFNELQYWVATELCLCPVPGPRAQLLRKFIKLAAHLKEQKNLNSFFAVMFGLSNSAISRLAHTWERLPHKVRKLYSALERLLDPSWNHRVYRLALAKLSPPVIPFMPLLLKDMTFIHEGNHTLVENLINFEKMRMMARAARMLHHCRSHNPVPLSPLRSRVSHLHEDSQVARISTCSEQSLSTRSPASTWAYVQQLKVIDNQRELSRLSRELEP
As to the kind of experiment: Epac activation assay, Epac1. The class given is biochemical. The conditions noted are these: Epac1; for Rel. kmax: maximal activity relative to cAMP.

The next assay deals with T2, Epac2^fl (Mus musculus, UniProt Q9EQZ6).
T2 sequence (Q9EQZ6 1-993 isoform Q9EQZ6-3): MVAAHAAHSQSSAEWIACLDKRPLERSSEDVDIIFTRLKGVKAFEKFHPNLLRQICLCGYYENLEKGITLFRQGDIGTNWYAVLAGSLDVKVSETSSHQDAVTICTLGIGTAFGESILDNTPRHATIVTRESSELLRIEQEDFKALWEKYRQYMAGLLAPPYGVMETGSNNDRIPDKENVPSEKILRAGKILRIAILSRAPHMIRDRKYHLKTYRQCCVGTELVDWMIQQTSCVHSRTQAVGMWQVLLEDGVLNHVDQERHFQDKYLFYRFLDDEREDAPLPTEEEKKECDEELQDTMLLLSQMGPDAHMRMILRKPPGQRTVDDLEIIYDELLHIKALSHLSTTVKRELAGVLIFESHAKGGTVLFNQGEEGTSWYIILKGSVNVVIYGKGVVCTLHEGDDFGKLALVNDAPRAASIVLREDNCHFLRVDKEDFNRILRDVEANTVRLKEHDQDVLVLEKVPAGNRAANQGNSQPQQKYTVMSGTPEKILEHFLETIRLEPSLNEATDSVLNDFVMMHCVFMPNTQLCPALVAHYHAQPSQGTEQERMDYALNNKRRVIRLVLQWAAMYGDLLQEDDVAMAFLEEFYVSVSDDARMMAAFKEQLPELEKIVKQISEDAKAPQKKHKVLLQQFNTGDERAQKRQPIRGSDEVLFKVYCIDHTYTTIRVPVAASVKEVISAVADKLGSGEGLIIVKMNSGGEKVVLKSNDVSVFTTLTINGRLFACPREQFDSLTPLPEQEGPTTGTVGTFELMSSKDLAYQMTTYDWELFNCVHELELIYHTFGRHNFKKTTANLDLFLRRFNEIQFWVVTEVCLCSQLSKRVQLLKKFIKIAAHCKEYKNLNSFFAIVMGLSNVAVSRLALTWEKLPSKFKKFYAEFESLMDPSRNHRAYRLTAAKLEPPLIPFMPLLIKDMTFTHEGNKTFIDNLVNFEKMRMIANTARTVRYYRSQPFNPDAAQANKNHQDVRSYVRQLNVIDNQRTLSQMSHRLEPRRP
As to the kind of experiment: Epac activation assay, full length Epac2. In kind it is biochemical. Also noted: made in house. The conditions noted are these: Epac2^fl; for Rel. kmax: maximal activity relative to cAMP. How it is done:
(§1) Murine Epac2 was used as all previous structural studies were performed with it.
(§2) The activity of Epac was determined by a fluorescence assay. […] The fluorescence intensity of Rap1B•mGDP is approximately twice that of free mGDP, and thus, nucleotide exchange can be observed as a decay in fluorescence upon the addition of excess unlabeled GDP.

The target of a further assay is T3, Epac2^Δ280 (Mus musculus, UniProt Q9EQZ6).
T3 construct: made in house
T3 sequence (Q9EQZ6 281-993 isoform Q9EQZ6-3): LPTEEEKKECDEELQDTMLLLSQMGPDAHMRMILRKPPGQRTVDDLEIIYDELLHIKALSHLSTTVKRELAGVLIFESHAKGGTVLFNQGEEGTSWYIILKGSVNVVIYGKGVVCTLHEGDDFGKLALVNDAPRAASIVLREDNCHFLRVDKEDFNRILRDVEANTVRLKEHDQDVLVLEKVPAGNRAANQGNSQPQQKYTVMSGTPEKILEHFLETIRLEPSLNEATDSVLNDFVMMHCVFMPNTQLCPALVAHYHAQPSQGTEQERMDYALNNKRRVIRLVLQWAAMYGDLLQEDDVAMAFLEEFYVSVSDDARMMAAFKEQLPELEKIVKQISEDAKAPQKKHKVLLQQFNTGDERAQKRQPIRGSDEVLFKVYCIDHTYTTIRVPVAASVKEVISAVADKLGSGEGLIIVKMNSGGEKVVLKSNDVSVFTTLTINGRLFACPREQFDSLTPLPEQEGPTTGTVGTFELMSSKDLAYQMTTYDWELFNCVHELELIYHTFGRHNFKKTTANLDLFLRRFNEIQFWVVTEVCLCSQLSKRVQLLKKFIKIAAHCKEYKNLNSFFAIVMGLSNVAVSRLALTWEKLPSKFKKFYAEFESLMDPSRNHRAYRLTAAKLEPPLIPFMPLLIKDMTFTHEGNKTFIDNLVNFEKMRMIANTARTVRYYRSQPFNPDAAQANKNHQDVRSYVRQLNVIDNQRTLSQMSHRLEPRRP
As to the kind of experiment: Epac activation assay (Rap1B•mGDP fluorescence nucleotide exchange), Epac2^Δ280. In kind it is biochemical. The conditions noted are these: Epac2^Δ280; for Rel. kmax: maximal activity relative to cAMP. On the procedure:
as §1, §2

The target of assay [2] is T1, Epac1. Also noted: method as in PMID 12888551. The conditions noted are these: footnote c, see also ref 13; cited from earlier work.

As to `Nc1ncnc2c1nc(SCc1ccccc1)n2[C@@H]1O[C@@H]2CO[P@](O)(=S)O[C@H]2[C@H]1F` [S-222, Sp-8-BnT-2′-F-cAMPS], the results for the concentration at half-maximal activity (AC50) at Epac1 [1], on Epac2^fl and on Epac2^Δ280 were 60 µM, 15 µM and 4.3 µM, respectively. For the same compound, the Rel. kmax is 0.09 on Epac1 [1], 1.8 at Epac2^fl and 4.2 at Epac2^Δ280.

Regarding `CNc1nc2c(N)ncnc2n1[C@@H]1O[C@@H]2COP(=O)(O)O[C@H]2[C@H]1O` [L-005, 8-MeA-cAMP], the half-maximal activity concentration (AC50) was 19 µM on Epac1 [2] and 0.6 µM on Epac2^Δ280. In addition, the Rel. kmax is given as 0.5^c at Epac1 [2] and 3.3 at Epac2^Δ280.

In the case of `Nc1ncnc2c1nc(Br)n2[C@@H]1O[C@@H]2COP(O)(=S)O[C@@H]2C1O` (some centres unmarked) [S-010, Sp-8-Br-cAMPS], the results for the concentration at half-maximal activity (AC50) at Epac1 [1], at Epac2^fl and on Epac2^Δ280 were 16 µM, 8 µM and 0.4 µM, respectively. The Rel. kmax turned out to be 1.0 on Epac1 [1], 3.6 on Epac2^fl and 3.5 at Epac2^Δ280.

Regarding `Nc1ncnc2c1nc(N1CCCCC1)n2[C@@H]1O[C@@H]2COP(=O)(O)O[C@H]2[C@H]1O` [L-018, 8-PIP-cAMP], the AC50 was 130 µM on Epac1 [2] and 13 µM at Epac2^Δ280. Also, the Rel. kmax at Epac1 [2] is given as 0.9^c; on Epac2^Δ280 it was 3.8.

For `Nc1ncnc2c1nc(Cl)n2[C@@H]1O[C@@H]2COP(=O)(O)O[C@H]2[C@H]1O` [L-001, 8-Cl-cAMP], on Epac1 [2], the AC50 is 6.9 µM and the Rel. kmax is reported as 0.5^c. Besides, on Epac2^Δ280, the activity was half-maximal at 0.3 µM (AC50) and the Rel. kmax is 0.8.

Take `Nc1ncnc2c1[nH]c(=O)n2C1OC2COP(=O)(O)OC2C1O` [L-021, 8-OH-cAMP]: the AC50 at Epac1 [2] was 26 µM; on Epac2^Δ280, 0.6 µM. Moreover, the Rel. kmax is given as 0.5^c at Epac1 [2] and 0.4 at Epac2^Δ280.

With `Nc1ncnc2c1nc(Br)n2[C@@H]1O[C@@H]2COP(=O)(O)O[C@H]2[C@H]1O` [L-002, 8-Br-cAMP], the values for the half-maximal activity concentration (AC50) on Epac1 [2] and at Epac2^Δ280 were 6.2 µM and 0.4 µM, respectively. In addition, the Rel. kmax on Epac1 [2] is 0.5^c; at Epac2^Δ280 it was 0.9.

`CNc1nc2c(N)ncnc2n1[C@@H]1O[C@@H]2CO[P@](O)(=S)O[C@H]2[C@H]1O` [S-030, Sp-8-MeA-cAMPS]: the AC50 amounted to 30 µM on Epac1 [1], 10 µM at Epac2^fl and 0.7 µM on Epac2^Δ280. The Rel. kmax was determined as 1.4 on Epac1 [1], 7.7 at Epac2^fl and 8.4 on Epac2^Δ280.

As to `CO[C@H]1C2OP(=O)(O)OC[C@H]2O[C@H]1n1cnc2c(N)ncnc21` (some centres unmarked) [Z-004, 2′-O-Me-cAMP], the AC50 at Epac1 [2] was greater than 100 µM. At Epac2^Δ280, this compound yielded a concentration at half-maximal activity (AC50) of 32 µM and a Rel. kmax of 1.0.

As to `Nc1ncnc2c1ncn2[C@H]1C[C@@H]2OP(=O)(O)OC[C@H]2O1` [Z-001, 2′-dcAMP], the AC50 at Epac1 [2] was greater than 1000 µM; on Epac2^Δ280, 70 µM. On Epac2^Δ280, this compound registered a Rel. kmax of 1.4.

For `CO[C@H]1C2OP(O)(=S)OC[C@H]2O[C@H]1n1c(Br)nc2c(N)ncnc21` (some centres unmarked) [S-014, Sp-8-Br-2′-O-Me-cAMPS], the AC50 on Epac2^fl was greater than 80 µM. At Epac2^Δ280, this compound yielded an AC50 of 13 µM and a Rel. kmax of 2.0.

For the compound `CSc1nc2c(N)ncnc2n1[C@@H]1O[C@@H]2COP(=O)(O)O[C@H]2[C@H]1SC` [D-002, 8,2′-DMeT-cAMP], the results for the AC50 on Epac1 [1], on Epac2^fl and on Epac2^Δ280 were 17 µM, 110 µM and 2.6 µM, respectively. The Rel. kmax was determined as 1.4 on Epac1 [1], 2.4 at Epac2^fl and 2.0 on Epac2^Δ280.
